From paper PMC6269060, “4-(1H-Pyrazol-1-yl) Benzenesulfonamide Derivatives: Identifying New Active Antileishmanial Structures for Use against a Neglected Disease” (Molecules, 2012) come the findings set out here.

Data set [1] concerns Leishmania amazonensis promastigotes. Kind of data set: In vitro antileishmanial drug assay, L. amazonensis promastigotes. In kind it is cell-based, Leishmania amazonensis MHOM/BR/77/LTB0016 strain. The conditions noted are these: for S.I (selectivity index: CC50 drug/IC50 drug), Leishmania amazonensis: CC50 on murine peritoneal cells / IC50 on L. amazonensis promastigotes; for IC50: Leishmania amazonensis, promastigotes, 24 h, 26 °C, mean ± S.D. of three determinations. How it is done: (§1) Parasites in metacyclic phase (4 × 10^6 parasites/mL) were incubated with the derivatives (40–160 mg/mL) solubilized in dimethyl sulphoxide (DMSO, Sigma Chemical Co., St. Louis, MO, USA) at 26 °C for 24 h. The results were expressed as IC50/24 h, the concentration of a compound that caused a 50% reduction in survival/viability compared with non-treated culture. Pentamidine was used as reference drug and all tests were carried out in triplicate. Promastigotes of L. amazonensis (MHOM/BR/77/LTB0016 strain) and L. infantum (syn. chagasi) (MCAN/BR/97/P142 strain) were grown in Schneider’s insect medium (Sigma) at 26 °C in pH 7.2 supplemented with 10–20% (v/v) heat-inactivated fetal calf serum.

Data set [2] deals with Leishmania infantum (L. chagasi syn.) promastigotes. Kind of data set: In vitro antileishmanial drug assay, L. infantum promastigotes. The format is cell-based, Leishmania infantum (syn. chagasi) MCAN/BR/97/P142 strain. The note with it: for S.I (selectivity index: CC50 drug/IC50 drug), Leishmania infantum: CC50 on murine peritoneal cells / IC50 on L. infantum promastigotes; for IC50: Leishmania infantum, promastigotes, 24 h, 26 °C, mean ± S.D. of three determinations. On the procedure:
as §1

Data set [3] in a line: In vitro cytotoxicity (MTT). The format is cell-based, BALB/c mice. The conditions noted are these: BALB/c, mouse, murine peritoneal adherent cells. How it is done: The BALB/c mice from Laboratory Animals Nucleus (UFF) were sacrificed to obtain peritoneal cells and for both infection and isolation of Leishmania. The protocol assays was approved by the Institutional Committee of the Center for Biological Evaluation and Care of Research Animals (CEUA-UFF).
BALB/c mice peritoneal cavity cells (4 × 10^5cells/well) were incubated with the derivatives (10, 20, 40 and 80 µg/mL) in 96 wells plate for 24 h in […] RPMI 1640 medium, supplemented with 1 mmol·L^−1L-glutamine, […], penicillin G (10^5 IU·L^−1) and streptomycin sulfate (0.10 g·L^−1) at 37 °C in a humidified 5% CO2 atmosphere. After that, 3-[4,5-dimethylthiazol-2-yl]-2,5-diphenyltetrazolium bromide, MTT (Sigma) was added and the reaction was interrupted with DMSO after 2 h. The results were determined in 540 nm by using a MicroQuant spectrophotometer (Biotek-Instrument Inc., Winooski, VT, USA). All assays were repeated at least four times in quadruplicate. The cytotoxicity profile was expressed as CC50/24 h, the concentration of a compound that caused cytotoxicity compared to non-treated cultures. Index of selectivity (IS) was defined as the ratio of the CC50 value on the macrophage to the IC50 value on the L. amazonensis or L. infantum strains (promastigotes).

As to `Cc1ccc(S(=O)(=O)Nc2ccc(-n3nc(C)cc3Cl)cc2)cc1` [Compound 3g, N-[4-(5-Chloro-3-methyl-1H-pyrazol-1-yl)phenyl]-4-methylbenzenesulfonamide], in data set [1], the “S.I (selectivity index: CC50 drug/IC50 drug), Leishmania amazonensis” value is 1.33 and the IC50 turned out to be 136 ± 54 µM. For the same compound, in data set [2], the “S.I (selectivity index: CC50 drug/IC50 drug), Leishmania infantum” value amounted to 1.21 and the IC50 is 149 ± 120 µM.
Turning to `Cc1nn(-c2ccc(S(N)(=O)=O)cc2)c(Cl)c1Br` [Compound 3a, 4-(4-Bromo-5-chloro-3-methyl-1H-pyrazol-1-yl)benzenesulfonamide], in data set [1], the “S.I (selectivity index: CC50 drug/IC50 drug), Leishmania amazonensis” value worked out at 0.78 and the IC50 came out at 228 ± 330 µM. In data set [2], the “S.I (selectivity index: CC50 drug/IC50 drug), Leishmania infantum” value worked out at 0.78 and the IC50 came to 228 ± 190 µM.
Consider `Cc1nn(-c2ccc(S(=O)(=O)Nc3ccc(Cl)cc3)cc2)c(Cl)c1Br` [Compound 3e, 4-(4-Bromo-5-chloro-3-methyl-1H-pyrazol-1-yl)-N-(4-chlorophenyl)benzenesulfonamide], for which, in data set [1], the “S.I (selectivity index: CC50 drug/IC50 drug), Leishmania amazonensis” value came out at 1.61 and it took 72 ± 50 µM to reach half-maximal inhibition (IC50). Moreover, in data set [2], the “S.I (selectivity index: CC50 drug/IC50 drug), Leishmania infantum” value was determined as 1.78 and half-maximal inhibition (IC50) required 65 ± 40 µM. The compound also returned a CC50 at 24 h in data set [3] of 116 µM.
On to `Cc1nn(-c2ccc(S(=O)(=O)Nc3ccc(Br)cc3)cc2)c(Cl)c1Br` [Compound 3d, 4-(4-Bromo-5-chloro-3-methyl-1H-pyrazol-1-yl)-N-(4-bromophenyl)benzenesulfonamide], for which, in data set [1], the “S.I (selectivity index: CC50 drug/IC50 drug), Leishmania amazonensis” value is 0.65 and the IC50 worked out at 75 ± 10 µM. Besides, in data set [2], the “S.I (selectivity index: CC50 drug/IC50 drug), Leishmania infantum” value came out at 0.49 and the IC50 turned out to be 99 ± 80 µM.
On to `Cc1ccc(NS(=O)(=O)c2ccc(-n3nc(C)c(Br)c3Cl)cc2)cc1` [Compound 3c, 4-(4-Bromo-5-chloro-3-methyl-1H-pyrazol-1-yl)-N-(4methylphenyl)benzenesulfonamide], for which, in data set [1], the “S.I (selectivity index: CC50 drug/IC50 drug), Leishmania amazonensis” value is given as 0.51 and the IC50 was 318 ± 590 µM. In data set [2], the “S.I (selectivity index: CC50 drug/IC50 drug), Leishmania infantum” value is reported as 1.33 and the IC50 was found to be 123 ± 50 µM.
For the compound `Cc1cc(Cl)n(-c2ccc(NS(=O)(=O)c3ccccc3)cc2)n1` [Compound 3f, N-[4-(5-Chloro-3-methyl-1H-pyrazol-1-yl)phenyl]benzenesulfonamide], in data set [1], the “S.I (selectivity index: CC50 drug/IC50 drug), Leishmania amazonensis” value stood at 0.68 and inhibition was half-maximal at 153 ± 220 µM (IC50). In data set [2], the “S.I (selectivity index: CC50 drug/IC50 drug), Leishmania infantum” value is reported as 0.76 and the IC50 was 138 ± 110 µM.
For `N=C(N)c1ccc(OCCCCCOc2ccc(C(=N)N)cc2)cc1` [Pentamidine, reference compound], the figures for the IC50 in data set [1] and in data set [2] were 21 µM and 62 µM, respectively. The compound also gave a CC50 at 24 h in data set [3] of 54 µM.
In the case of `Cc1nn(-c2ccc(S(=O)(=O)Nc3ccccc3)cc2)c(Cl)c1Br` [Compound 3b, 4-(4-Bromo-5-chloro-3-methyl-1H-pyrazol-1-yl)-N-phenylbenzenesulfonamide], in data set [1], the “S.I (selectivity index: CC50 drug/IC50 drug), Leishmania amazonensis” value came out at 2.05 and half-maximal inhibition (IC50) required 70 ± 20 µM. In data set [2], the “S.I (selectivity index: CC50 drug/IC50 drug), Leishmania infantum” value is reported as 2.44 and the IC50 is 59 ± 10 µM. Further, the CC50 at 24 h in data set [3] stood at 144 µM.
